The Ki is the dissociation constant of the complex between target and ligand, obtained from inhibition or displacement.

A short description of data set [1]: Solubility in Acetate Buffer at pH 3. The data set is classed as physicochemical. To be noted: for solubility: aqueous buffer, read-out: Sol (ug/mL) at pH3.
Data set [2] can be described thus: Experimental logP by HPLC method. The data set is classed as physicochemical. The conditions noted are these: for chromatographic logP: read-out: Exp. logP.
Data set [3] is described as follows: Solubility in Phosphate Buffer at pH 7.4. The data set is classed as physicochemical. To be noted: for solubility compared to sEH inhibitors with hydrophobic alkyl group at R7: in words.
A short description of data set [4]: pH titration of solubility. It counts as physicochemical. The conditions noted are these: FIG. 9.
The test system of data set [5] is PTZ induced seizure. In words: Pentylenetetrazol (PTZ) induced seizure model. The data set is classed as in vivo, mice. As for the experimental part: To investigate the central nervous system penetration efficacy of sEH inhibitors a standard acute test involving the administration of pro-convulsant pentylenetetrazol (PTZ) was employed. In the subcutaneous pentylenetetrazol (PTZ) test 80 mg/kg of PTZ is administered by subcutaneous route, time to onset of first clonic seizure (clonus), time to tonic hind limb extension and lethality (tonus) are monitored for a duration of 30 min. Inhibitors of sEH were completely dissolved using PEG400 as a vehicle to give clear solutions. Inhibitors or vehicle were administered by intraperitoneal route 1 h prior to pro-convulsant at a single discriminating dose based on earlier data. This dose of PTZ produces 100% lethality within 30 min upon administration.
PTZ is a chemical which induces seizures. This assay is considered highly translatable from mice to humans.

Data set [6] addresses T1, human sEH (Homo sapiens (Human), UniProt P34913). In words: FRET-displacement assay (Ki). It counts as binding. The conditions noted are these: for Ki: affinity purified recombinant human sEH, FRET-displacement.
Data set [7] addresses T1, human sEH. Put plainly: koff measurement, enzymatic t1/2 (residence time). To be noted: time for half of the drug to dissociate from recombinant affinity purified human sEH.
The mark [8] stands for this setting: HPLC method calibrated with eLogP of 4 selected inhibitors determined by shake-flask method.

Values after ≈ are worked out from the molar mass of the structure shown. Read-outs that look alike come from different tables or passages of the source.

T1 sequence (P34913 whole entry): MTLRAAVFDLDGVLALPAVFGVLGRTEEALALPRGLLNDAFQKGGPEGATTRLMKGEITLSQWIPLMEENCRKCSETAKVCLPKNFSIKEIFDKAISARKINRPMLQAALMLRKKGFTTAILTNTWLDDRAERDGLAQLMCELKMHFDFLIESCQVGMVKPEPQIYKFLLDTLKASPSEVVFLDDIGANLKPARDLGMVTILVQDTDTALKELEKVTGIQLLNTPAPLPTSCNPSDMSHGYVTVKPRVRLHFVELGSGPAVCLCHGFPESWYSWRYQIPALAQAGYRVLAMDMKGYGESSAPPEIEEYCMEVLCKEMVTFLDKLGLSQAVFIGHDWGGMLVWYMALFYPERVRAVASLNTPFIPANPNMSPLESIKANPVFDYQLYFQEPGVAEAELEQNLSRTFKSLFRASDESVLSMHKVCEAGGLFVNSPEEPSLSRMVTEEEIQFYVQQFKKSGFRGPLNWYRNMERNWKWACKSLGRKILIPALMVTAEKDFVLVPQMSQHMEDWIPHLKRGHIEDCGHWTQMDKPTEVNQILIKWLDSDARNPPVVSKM

For the molecule “1-(3-fluoro-4-(trifluoromethyl)phenyl)-3-(1-isobutyrylpiperidin-4-yl)urea [Compound 20]”, in data set [1] (Acetate Buffer at pH 3), the “Sol (ug/mL) at pH3” value is reported as 6 ug/mL.

Regarding “2-(1-(cyclopropanecarbonyl)piperidin-4-yl)-N-(3-fluoro-4-(trifluoromethoxy)phenyl)acetamide [Compound 48]”, in data set [2], the “Exp. logP” value is on record as 5.11.

As for `CC(=O)N1CCC(NC(=O)NC23CC4CC(CC(C4)C2)C3)CC1` [APAU, reference compound], the chromatographic logP in data set [2] was determined as 1.5. Moreover, the solubility in data set [3] (aqueous buffer, Phosphate Buffer at pH 7.4) was 0.277 mg/mL (≈ 867 µM).

Consider `O=C(Nc1ccc(OC(F)(F)F)cc1)NC1CCN(C(=O)C2CCOCC2)CC1` [Compound 1, 1-(1-(tetrahydro-2H-pyran-4-carbonyl)piperidin-4-yl)-3-(4-(trifluoromethoxy)phenyl)urea], for which the chromatographic logP in data set [2] turned out to be 3.26.

With `Cc1occc1C(=O)N1CCC(NC(=O)Nc2ccc(OC(F)(F)F)cc2)CC1` [Compound 6, 1-(1-(2-methylfuran-3-carbonyl)piperidin-4-yl)-3-(4-(trifluoromethoxy)phenyl)urea], the chromatographic logP in data set [2] amounted to 4.3.

Turning to `O=C(Nc1ccc(C(F)(F)F)cc1)NC1CCN(C(=O)C2=COCC2)CC1` [Compound 12, 1-(1-(4,5-dihydrofuran-3-carbonyl)piperidin-4-yl)-3-(4-(trifluoromethyl)phenyl)urea], in data set [2] (setting [8]), the chromatographic logP turned out to be 3.37.

As to `O=C(Nc1ccc(C(F)(F)F)cc1)NC1CCN(C(=O)C2CCCOC2)CC1` (stereo not shown) [Compound 15, 1-(1-(tetrahydro-2H-pyran-3-carbonyl)piperidin-4-yl)-3-(4-(trifluoromethyl)phenyl)urea], in data set [2] (setting [8]), the chromatographic logP was found to be 3.41.

As for `O=C(Nc1ccc(C(F)(F)F)cc1)NC1CCN(C(=O)c2cc[nH]c2)CC1` [Compound 16, 1-(1-(1H-pyrrole-3-carbonyl)piperidin-4-yl)-3-(4-(trifluoromethyl)phenyl)urea], the chromatographic logP in data set [2] (setting [8]) turned out to be 3.26.

In the case of `O=C(Nc1ccc(OC(F)(F)F)c(F)c1)NC1CCN(C(=O)C2CC2)CC1` [Compound 24, 1-(1-(cyclopropanecarbonyl)piperidin-4-yl)-3-(3-fluoro-4-(trifluoromethoxy)phenyl)urea], the chromatographic logP in data set [2] was 4.19.

For the molecule `CC[C@H](C)C(=O)N1CCC(NC(=O)Nc2ccc(OC(F)(F)F)c(F)c2)CC1` [Compound 26, (S)-1-(3-fluoro-4-(trifluoromethoxy)phenyl)-3-(1-(2-methylbutanoyl)piperidin-4-yl)urea], the chromatographic logP in data set [2] (setting [8]) came out at 4.16.

Take `O=C(Nc1ccc(OC(F)(F)F)c(F)c1)NC1CCN(C(=O)C2CCCOC2)CC1` (stereo not shown) [Compound 27]: the “solubility compared to sEH inhibitors with hydrophobic alkyl group at R7” value in data set [3] is recorded as “remarkably enhance the solubility”. Moreover, the solubility in data set [1] (Acetate Buffer at pH 3) amounted to 522 µg/mL (≈ 1200 µM). In addition, the “solubility at pH 3 compared to APAU” value in data set [1] (pH 3, in words) is “much better than the most soluble 1,3-disubstituted urea sEH inhibitors”.

Turning to `O=C(Nc1ccc(OC(F)(F)F)c(F)c1)NC1CCN(C(=O)C2CCOCC2)CC1` [Compound 29, 1-(3-fluoro-4-(trifluoromethoxy)phenyl)-3-(1-(tetrahydro-2H-pyran-4-carbonyl)piperidin-4-yl)urea], the chromatographic logP in data set [2] (setting [8]) is 3.73. Further, the “solubility compared to sEH inhibitors with hydrophobic alkyl group at R7” value in data set [3] is given as “remarkably enhance the solubility”. In addition, in data set [1] (Acetate Buffer at pH 3), the solubility is 206 µg/mL (≈ 475 µM). The “solubility in pH titration” value in data set [4] was “increases dramatically when the pH is below 4”. The “onset of the tonic phase of seizure” value in data set [5] (0.3 mpk, wild type Swiss mice, subcutaneous PTZ, p<0.05) was “delayed onset of the tonic phase of seizure”. The “protection from convulsions and associated lethality” value in data set [5] (mice, PTZ 80 mg/kg subcutaneous, inhibitor 1 h prior) was “protect mice from convulsions and associated lethality”.

Take `O=C(Nc1ccc(OC(F)(F)F)c(F)c1)NC1CCN(C(=O)C2(C(F)(F)F)CC2)CC1` [Compound 30]: the chromatographic logP in data set [2] (setting [8]) was 5.94.

As for `CCC(=O)N1CCC(NC(=O)Nc2ccc(C(F)(F)F)c(F)c2)CC1` [Compound 31, 1-(3-fluoro-4-(trifluoromethyl)phenyl)-3-(1-propionylpiperidin-4-yl)urea], the chromatographic logP in data set [2] (setting [8]) amounted to 3.76.

`O=C(Nc1ccc(C(F)(F)F)c(F)c1)NC1CCN(C(=O)C2CC2)CC1` [Compound 32, 1-(1-(cyclopropanecarbonyl)piperidin-4-yl)-3-(3-fluoro-4-(trifluoromethyl)phenyl)urea]: the chromatographic logP in data set [2] (setting [8]) is 3.94.

With `O=C(Nc1ccc(C(F)(F)F)c(F)c1)NC1CCN(C(=O)[C@@H]2CCOC2)CC1` [Compound 33, (R)-1-(3-fluoro-4-(trifluoromethyl)phenyl)-3-(1-(tetrahydrofuran-3-carbonyl)piperidin-4-yl)urea], the chromatographic logP in data set [2] (setting [8]) amounted to 3.41.

Consider `O=C(Nc1ccc(C(F)(F)F)c(F)c1)NC1CCN(C(=O)C2CCCOC2)CC1` (stereo not shown) [Compound 35, 1-(3-fluoro-4-(trifluoromethyl)phenyl)-3-(1-(tetrahydro-2H-pyran-3-carbonyl)piperidin-4-yl)urea], for which, in data set [2] (setting [8]), the chromatographic logP came to 3.84.

In the case of `O=C(Nc1ccc(C(F)(F)F)c(F)c1)NC1CCN(C(=O)C2(C(F)(F)F)CC2)CC1` [Compound 36, 1-(3-fluoro-4-(trifluoromethyl)phenyl)-3-(1-(1-(trifluoromethyl)cycloproropane-1-carbonyl)piperidin-4-yl)urea], the “Potency Enhancement” value in data set [6] (Ki of original inhibitor / Ki of meta-F substituted inhibitor) was found to be 1. Moreover, in data set [2] (setting [8]), the chromatographic logP was 5.52.

As to `O=C(Nc1ccc(C(F)(F)F)c(F)c1)NC1CCN(C(=O)C2CCOCC2)CC1` [Compound 37, 1-(3-fluoro-4-(trifluoromethyl)phenyl)-3-(1-(tetrahydro-2H-pyran-4-carbonyl)piperidin-4-yl)urea], the chromatographic logP in data set [2] (setting [8]) is 3.52.

On to `O=C(Nc1ccc(OC(F)(F)F)c(F)c1)Nc1ccc(OC(F)(F)F)c(F)c1` [Compound 38], for which, in data set [6], the Ki was 1.95 ± 0.3 nM.

Turning to `O=C(Nc1ccc(OC(F)(F)F)c(F)c1)NC1CCN(C(=O)N2CCC(NC(=O)Nc3ccc(OC(F)(F)F)c(F)c3)CC2)CC1` [Compound 39], in data set [6], the inhibition constant Ki stood at 10.1 ± 1.8 nM.

For `CCOC(=O)N1CCC(NC(=O)Nc2ccc(OC(F)(F)F)c(F)c2)CC1` [Compound 40, ethyl 4-(3-(3-fluoro-4-(trifluoromethoxy)phenyl)ureido)piperidine-1-carboxylate], the chromatographic logP in data set [2] (setting [8]) worked out at 5.94.

Regarding `CCOC(=O)N1CCC(NC(=O)Nc2ccc(C(F)(F)F)c(F)c2)CC1` [Compound 41, ethyl 4-(3-(3-fluoro-4-(trifluoromethyl)phenyl)ureido)piperidine-1-carboxylate], the chromatographic logP in data set [2] (setting [8]) was determined as 5.46.

Regarding `O=C(Nc1ccc(OC(F)(F)F)c(F)c1)NC1CCN(C(=O)N2CCOCC2)CC1` [Compound 43, 1-(3-fluoro-4-(trifluoromethoxy)phenyl)-3-(1-(morpholine-4-carbonyl)piperidin-4-yl)urea], the chromatographic logP in data set [2] (setting [8]) came to 3.93.

Regarding `CC[C@H](C)C(=O)N1CCC(NC(=O)Nc2ccc(OC(F)(F)F)c(Cl)c2)CC1` [Compound 44, (S)-1-(3-chloro-4-(trifluoromethoxy)phenyl)-3-(1-(2-methylbutanoyl)piperidin-4-yl)urea], the chromatographic logP in data set [2] (setting [8]) came out at 7.7. Further, the “t1/2 (min) human sEH” value in data set [7] stood at 10 min.

Take `CC[C@H](C)C(=O)N1CCC(NC(=O)Nc2ccc(OC(F)(F)F)c(Br)c2)CC1` [Compound 45]: the chromatographic logP in data set [2] (setting [8]) worked out at 8.07.

As for `CC[C@H](C)C(=O)N1CCC(NC(=O)Nc2ccc(OC(F)(F)F)c(C(F)(F)F)c2)CC1` [Compound 46, (S)-1-(1-(2-methylbutanoyl)piperidin-4-yl)-3-(4-(trifluoromethoxy)-3-(trifluoromethyl)phenyl)urea], the chromatographic logP in data set [2] (setting [8]) stood at 9.02.

With `CC[C@H](C)C(=O)N1CCC(NC(=O)Nc2ccc(OC(F)(F)F)c(OC(F)(F)F)c2)CC1` [Compound 47], in data set [2] (setting [8]), the chromatographic logP stood at 10.6.

As to `CC(C)C(=O)N1CCC(NC(=O)Nc2ccc(C(F)(F)F)cc2)CC1` [Compound 2389, reference compound], the “Exp. logP” value in data set [2] is given as 3.37.

In the case of `CC(C)C(=O)N1CCC(NC(=O)Nc2ccc(OC(F)(F)F)cc2)CC1` [Compound 2422, reference compound], the “Exp. logP” value in data set [2] turned out to be 3.56.
